Data as given in US20110144079A1, “ANTIMICROBIAL SYSTEM” (priority 2008, published 2011).

Test system: B. cereus
Assay: Broth microdilution MIC/MBC
Format: cell-based
Conditions: 24 h at 37° C.
Description: (§1) Broth microdilution tests were performed according to NCCLS guidelines. Serial two-fold dilutions of each imidazolium salt (from an original working solution which had been 0.22 μm sterile filtered) in Mueller-Hinton Broth (MHB) (100 μl) were prepared in 96-well micro-titre plates over the range 0.0000625-1% w/v. The inoculum to be tested was prepared by adjusting the turbidity of an actively overnight growing broth culture in MHB to an optical density at 550 nm equivalent to 1×10^8 CFU/ml. The suspension was further diluted to provide a final inoculum density of 2×10^5 CFU/ml in MHB as verified by total viable count. The inoculum to be tested (100 μl, 2×10^5 CFU ml^−1) was added to each well of the microdilution trays which were incubated aerobically for 24 h at 37° C. Positive and negative growth controls were included in every assay (6 replicates). After determining the MICs, minimum bactericidal concentrations (MBCs) were determined by spreading 20 μl of suspension from wells showing no growth onto MHA plates, which were then incubated for 24 h and examined for 99.9% killing.

First: CCCCCCCCCCCCn1cc[n+](C)c1.CCCCCCCCCCCCn1cc[n+](C)c1.[Cl][Cu-2]([Cl])([Cl])[Cl] [(1-alkyl-3-methylimidazolium)2CuCl4 12]
Second: CCCCCCCCCCCCCCCCn1cc[n+](C)c1.CCCCCCCCCCCCCCCCn1cc[n+](C)c1.[Cl][Cu-2]([Cl])([Cl])[Cl] [(1-alkyl-3-methylimidazolium)2CuCl4 16]
The MIC of the first is 4.5-fold higher: 407 µM for the first, 89.63 µM for the second.

CCCCCCCCCCCCCC[n+]1ccn(C)c1.[Br][Ag-][Br] [1-alkyl-3-methylimidazolium-AgBr2 14] and CCCCCCCCCCn1cc[n+](C)c1.[Br][Ag-][Br] [1-alkyl-3-methylimidazolium-AgBr2 10] are within 1.5-fold of each other in MIC: 72.2 µM for the first, 79.78 µM for the second.

Test system: C. tropicalis NCTC 7393
Assay: Broth microdilution MIC/MBC
Format: cell-based
Conditions: C. tropicalis NCTC 7393, 24 h at 37° C.
Description: as §1

CCCCCCCCCCCCn1cc[n+](C)c1.CCCCCCCCCCCCn1cc[n+](C)c1.[Cl][Cu-2]([Cl])([Cl])[Cl] [(1-alkyl-3-methylimidazolium)2CuCl4 12] and CCCCCCCCCCCCCCCCn1cc[n+](C)c1.CCCCCCCCCCCCCCCCn1cc[n+](C)c1.[Cl][Cu-2]([Cl])([Cl])[Cl] [(1-alkyl-3-methylimidazolium)2CuCl4 16] are within 1.5-fold of each other in MIC: 50.88 µM for the first, 44.81 µM for the second.

Compared with CCCCCCCCCCCCCC[n+]1ccn(C)c1.[Br][Ag-][Br] [1-alkyl-3-methylimidazolium-AgBr2 14], CCCCCCCCCCn1cc[n+](C)c1.[Br][Ag-][Br] [1-alkyl-3-methylimidazolium-AgBr2 10] is 2.2-fold higher in MIC: 36.1 µM for the first, 79.78 µM for the second.

Test system: E. coli NCTC 8196
Assay: Broth microdilution MIC/MBC
Format: cell-based
Conditions: E. coli NCTC 8196, 24 h at 37° C.
Description: as §1

CCCCCCCCCCCCn1cc[n+](C)c1.CCCCCCCCCCCCn1cc[n+](C)c1.[Cl][Cu-2]([Cl])([Cl])[Cl] [(1-alkyl-3-methylimidazolium)2CuCl4 12] and CCCCCCCCCCCCCCCCn1cc[n+](C)c1.CCCCCCCCCCCCCCCCn1cc[n+](C)c1.[Cl][Cu-2]([Cl])([Cl])[Cl] [(1-alkyl-3-methylimidazolium)2CuCl4 16] are within 1.5-fold of each other in MIC: 50.88 µM for the first, 44.81 µM for the second.

Compared with CCCCCCCCCCCCCC[n+]1ccn(C)c1.[Br][Ag-][Br] [1-alkyl-3-methylimidazolium-AgBr2 14], CCCCCCCCCCn1cc[n+](C)c1.[Br][Ag-][Br] [1-alkyl-3-methylimidazolium-AgBr2 10] is 2.2-fold higher in MIC: 15.03 µM for the first, 32.68 µM for the second.

Test system: K. aerogenes NCTC 7427
Assay: Broth microdilution MIC/MBC
Format: cell-based
Conditions: K. aerogenes NCTC 7427, 24 h at 37° C.
Description: as §1

CCCCCCCCCCCCn1cc[n+](C)c1.CCCCCCCCCCCCn1cc[n+](C)c1.[Cl][Cu-2]([Cl])([Cl])[Cl] [(1-alkyl-3-methylimidazolium)2CuCl4 12] and CCCCCCCCCCCCCCCCn1cc[n+](C)c1.CCCCCCCCCCCCCCCCn1cc[n+](C)c1.[Cl][Cu-2]([Cl])([Cl])[Cl] [(1-alkyl-3-methylimidazolium)2CuCl4 16] are within 1.5-fold of each other in MIC: 50.88 µM for the first, 44.81 µM for the second.

Compared with CCCCCCCCCCCCCC[n+]1ccn(C)c1.[Br][Ag-][Br] [1-alkyl-3-methylimidazolium-AgBr2 14], CCCCCCCCCCn1cc[n+](C)c1.[Br][Ag-][Br] [1-alkyl-3-methylimidazolium-AgBr2 10] is 4.4-fold higher in MIC: 18.05 µM for the first, 79.78 µM for the second.

Test system: P. mirabilis NCTC 12442
Assay: Broth microdilution MIC/MBC
Format: cell-based
Conditions: P. mirabilis NCTC 12442, 24 h at 37° C.
Description: as §1

CCCCCCCCCCCCn1cc[n+](C)c1.CCCCCCCCCCCCn1cc[n+](C)c1.[Cl][Cu-2]([Cl])([Cl])[Cl] [(1-alkyl-3-methylimidazolium)2CuCl4 12] and CCCCCCCCCCCCCCCCn1cc[n+](C)c1.CCCCCCCCCCCCCCCCn1cc[n+](C)c1.[Cl][Cu-2]([Cl])([Cl])[Cl] [(1-alkyl-3-methylimidazolium)2CuCl4 16] are within 1.5-fold of each other in MIC: 50.88 µM for the first, 44.81 µM for the second.

Compared with CCCCCCCCCCCCCC[n+]1ccn(C)c1.[Br][Ag-][Br] [1-alkyl-3-methylimidazolium-AgBr2 14], CCCCCCCCCCn1cc[n+](C)c1.[Br][Ag-][Br] [1-alkyl-3-methylimidazolium-AgBr2 10] is 4.4-fold higher in MIC: 18.05 µM for the first, 79.78 µM for the second.

Test system: S. aureus ATCC 29213
Assay: Broth microdilution MIC/MBC
Format: cell-based
Conditions: S. aureus ATCC 29213, 24 h at 37° C.
Description: as §1

First: CCCCCCCCCCCCn1cc[n+](C)c1.CCCCCCCCCCCCn1cc[n+](C)c1.[Cl][Cu-2]([Cl])([Cl])[Cl] [(1-alkyl-3-methylimidazolium)2CuCl4 12]
Second: CCCCCCCCCCCCCCCCn1cc[n+](C)c1.CCCCCCCCCCCCCCCCn1cc[n+](C)c1.[Cl][Cu-2]([Cl])([Cl])[Cl] [(1-alkyl-3-methylimidazolium)2CuCl4 16]
The MIC of the first is 2.3-fold higher: 50.88 µM for the first, 22.41 µM for the second.

Going from CCCCCCCCCCCCCC[n+]1ccn(C)c1.[Br][Ag-][Br] [1-alkyl-3-methylimidazolium-AgBr2 14] to CCCCCCCCCCn1cc[n+](C)c1.[Br][Ag-][Br] [1-alkyl-3-methylimidazolium-AgBr2 10], the MIC rises from 3.76 µM to 32.68 µM (8.7-fold).

Test system: S. epidermidis ATCC 12228
Assay: Broth microdilution MIC/MBC
Format: cell-based
Conditions: S. epidermidis ATCC 12228, 24 h at 37° C.
Description: as §1

CCCCCCCCCCCCn1cc[n+](C)c1.CCCCCCCCCCCCn1cc[n+](C)c1.[Cl][Cu-2]([Cl])([Cl])[Cl] [(1-alkyl-3-methylimidazolium)2CuCl4 12] and CCCCCCCCCCCCCCCCn1cc[n+](C)c1.CCCCCCCCCCCCCCCCn1cc[n+](C)c1.[Cl][Cu-2]([Cl])([Cl])[Cl] [(1-alkyl-3-methylimidazolium)2CuCl4 16] are within 1.5-fold of each other in MIC: 50.88 µM for the first, 44.81 µM for the second.

First: CCCCCCCCCCCCCC[n+]1ccn(C)c1.[Br][Ag-][Br] [1-alkyl-3-methylimidazolium-AgBr2 14]
Second: CCCCCCCCCCn1cc[n+](C)c1.[Br][Ag-][Br] [1-alkyl-3-methylimidazolium-AgBr2 10]
The MIC of the first is 2.2-fold lower: 15.03 µM for the first, 32.68 µM for the second.

Test system: S. epidermidis ATCC 35984
Assay: Broth microdilution MIC/MBC
Format: cell-based
Conditions: S. epidermidis ATCC 35984, 24 h at 37° C.
Description: as §1

First: CCCCCCCCCCCCn1cc[n+](C)c1.CCCCCCCCCCCCn1cc[n+](C)c1.[Cl][Cu-2]([Cl])([Cl])[Cl] [(1-alkyl-3-methylimidazolium)2CuCl4 12]
Second: CCCCCCCCCCCCCCCCn1cc[n+](C)c1.CCCCCCCCCCCCCCCCn1cc[n+](C)c1.[Cl][Cu-2]([Cl])([Cl])[Cl] [(1-alkyl-3-methylimidazolium)2CuCl4 16]
The MIC of the first is 2.3-fold higher: 50.88 µM for the first, 22.41 µM for the second.

Going from CCCCCCCCCCCCCC[n+]1ccn(C)c1.[Br][Ag-][Br] [1-alkyl-3-methylimidazolium-AgBr2 14] to CCCCCCCCCCn1cc[n+](C)c1.[Br][Ag-][Br] [1-alkyl-3-methylimidazolium-AgBr2 10], the MIC rises from 15.03 µM to 32.68 µM (2.2-fold).
